{"source": "paper PMC3266722", "about": "(Journal of Medicinal Chemistry, 2011)", "key": {"hA1AR": {"target": "T1, hA1AR (Homo sapiens, UniProt P30542)", "T1 sequence (P30542 1-326)": "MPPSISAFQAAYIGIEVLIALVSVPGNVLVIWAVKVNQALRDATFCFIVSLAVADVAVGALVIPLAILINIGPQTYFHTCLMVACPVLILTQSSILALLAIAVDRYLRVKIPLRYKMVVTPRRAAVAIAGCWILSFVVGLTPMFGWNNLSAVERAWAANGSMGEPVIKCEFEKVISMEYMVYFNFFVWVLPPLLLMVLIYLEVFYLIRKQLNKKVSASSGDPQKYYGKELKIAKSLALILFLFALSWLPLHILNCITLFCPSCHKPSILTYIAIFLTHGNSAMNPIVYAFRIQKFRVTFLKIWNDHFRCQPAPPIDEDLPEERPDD", "conditions": "percent inhibition of specific radioligand binding at 10 μM; ref [11]; cited from earlier work"}, "hA2BAR": {"target": "T2, hA2BAR (Homo sapiens, UniProt P29275)", "T2 sequence (P29275 1-332)": "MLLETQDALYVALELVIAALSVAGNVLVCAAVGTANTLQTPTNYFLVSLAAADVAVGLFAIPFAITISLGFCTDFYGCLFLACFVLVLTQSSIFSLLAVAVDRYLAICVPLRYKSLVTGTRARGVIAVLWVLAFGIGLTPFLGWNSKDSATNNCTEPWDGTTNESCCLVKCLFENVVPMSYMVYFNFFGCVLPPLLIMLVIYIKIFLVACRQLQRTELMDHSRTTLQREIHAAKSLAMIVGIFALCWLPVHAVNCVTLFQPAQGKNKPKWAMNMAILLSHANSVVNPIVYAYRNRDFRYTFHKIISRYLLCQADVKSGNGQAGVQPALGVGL", "conditions": "read-out: EC50, cyclic AMP accumulation at hA2BAR; CHO cells; cited from earlier work"}, "hA2AAR [1]": {"target": "T3, hA2AAR (Homo sapiens, UniProt P29274)", "T3 sequence (P29274 whole entry)": "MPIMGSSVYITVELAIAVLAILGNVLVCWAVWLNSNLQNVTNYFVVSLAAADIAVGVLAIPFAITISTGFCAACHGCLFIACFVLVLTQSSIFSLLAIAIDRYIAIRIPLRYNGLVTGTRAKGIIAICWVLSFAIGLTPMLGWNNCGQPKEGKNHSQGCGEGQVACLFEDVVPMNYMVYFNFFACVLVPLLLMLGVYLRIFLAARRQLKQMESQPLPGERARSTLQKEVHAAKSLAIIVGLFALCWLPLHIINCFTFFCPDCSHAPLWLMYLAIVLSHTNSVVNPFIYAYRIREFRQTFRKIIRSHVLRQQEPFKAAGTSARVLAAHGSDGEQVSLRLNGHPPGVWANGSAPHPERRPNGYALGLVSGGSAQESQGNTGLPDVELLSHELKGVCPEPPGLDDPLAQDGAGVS", "conditions": "compared to the standard CGS21680; cited from earlier work"}, "hA2AAR [2]": {"target": "T3, hA2AAR", "conditions": "percent inhibition of specific radioligand binding at 10 μM; ref [11]; cited from earlier work"}, "hA2AAR [3]": {"target": "T3, hA2AAR", "experiment": "Radioligand binding assay at human A2A receptor", "conditions": "ratio of Ki values"}}, "data": [{"smiles": "CCCC/C=C/c1nc(N)c2ncn([C@@H]3SC[C@@H](O)[C@H]3O)c2n1", "note": "[Compound 4m]", "values": [{"measurement": "Affinity (% inhibition) hA1", "setting": "hA1AR", "value": "16.2 ± 8.4", "unit": "%"}]}, {"smiles": "CCCCC#Cc1nc(N)c2ncn([C@@H]3SCC(O)C3O)c2n1", "note": "(stereo in doubt) [Compound 4g, (−)-(2R,3S,4R)-2-(6-Amino-2-(hex-1-ynyl)-9H-purin-9-yl)tetrahydrothiophene-3,4-diol]", "values": [{"measurement": "Affinity (% inhibition) hA1", "setting": "hA1AR", "value": "39 ± 10", "unit": "%"}, {"measurement": "EC50", "setting": "hA2BAR", "value": "~10", "unit": "µM"}, {"measurement": "agonist efficacy at hA2AAR", "setting": "hA2AAR [1]", "value": "full agonist"}]}, {"smiles": "CCCC/C=C/c1nc2c(N)ncnc2n1[C@@H]1SCC(O)C1O", "note": "(stereo in doubt) [Compound 4r, (−)-(2R,3S,4R)-2-(6-Amino-8-(hex-1-enyl)-9H-purine-9-yl)-tetrahydrothiophene-3,4-diol]", "values": [{"measurement": "Affinity (% inhibition) hA1", "setting": "hA1AR", "value": "3.7 ± 2.9", "unit": "%"}, {"measurement": "Affinity (% inhibition) hA2A", "setting": "hA2AAR [2]", "value": "22.8 ± 6.4", "unit": "%"}]}, {"smiles": "CCCCC#Cc1nc(NCc2cccc(Cl)c2)c2ncn([C@@H]3SCC(O)C3O)c2n1", "note": "(stereo in doubt) [Compound 4i, (−)-(2R,3S,4R)-2-(6-(3-Chlorobenzylamino)-2-(hex-1-ynyl)-9H-purin-9-yl)tetrahydrothiophene-3,4-diol]", "values": [{"measurement": "decrease of hA2AAR binding affinity in comparison to 4g", "setting": "hA2AAR [3]", "value": 520, "unit": "fold"}]}, {"smiles": "CCCCC#Cc1nc2c(N)ncnc2n1[C@@H]1SCC(O)C1O", "note": "(stereo in doubt) [Compound 4o, (−)-(2R,3S,4R)-2-(6-Amino-8-(hex-1-ynyl)-9H-purine-9-yl)-tetrahydrothiophene-3,4-diol]", "values": [{"measurement": "Affinity (% inhibition) hA1", "setting": "hA1AR", "value": "49.3 ± 4.9", "unit": "%"}, {"measurement": "Affinity (% inhibition) hA2A", "setting": "hA2AAR [2]", "value": "46.5 ± 4.3", "unit": "%"}]}]}
